# Test results: US20260274866A1, “PYRIDO[4,3-D]PYRIMIDINE DERIVATIVES AS MUTANT KRAS G12C INHIBITORS FOR THE TREATMENT OF CANCER” (Frontier Medicines Corporation, priority 2023, published 2026)
# Target: T1, KRAS G12C (GMPPNP-loaded) and cRAF (Ras-binding domain) interaction (Homo sapiens, UniProt P01116, C118S/C51S/C80L/G12C)
# T1 construct: truncated version comprising amino acids 1-169
# Assay: AlphaScreen inhibition of KRAS G12C and cRAF binding
# Format: biochemical
# Settings: KRAS G12C preloaded with GTP analogue GMPPNP, 2 hours preincubation
# Description: The AlphaScreen technology was used to determine IC50s for compound inhibition of KRAS G12C (present as the Cys-light (C51S, C80L and C118S), truncated version comprising amino acids 1-169) and cRAF interaction. Compounds were diluted in 100% DMSO and each compound concentration was spotted at 200 nl/well onto low volume, white 384 well plates. The KRAS G12C contained a biotin-AviTag and the cRaf, as Ras-binding domain (amino acids 50-131, RBD), was GST-tagged. KRAS G12C was preloaded with the GTP analogue Guanosine 5′-[β,γ-imido]triphosphate (GMPPNP). The KRAS G12C was diluted in 25 mM Hepes, pH 7.4, 150 mM NaCl, 5 mM MgCl2, 0.01% TritonX-100 and 10 μM GMPPNP and added at 10 ul/well to compound-spotted plates resulting in a DMSO concentration of 2%. Plates were incubated for 2 hours. A mixture of RBD and the AlphaScreen streptavidin donor and glutathione acceptor beads diluted in 25 mM Hepes, pH 7.4, 150 mM NaCl, 5 mM MgCl2, 0.01% TritonX-100 and 2% DMSO was then added at 10 ul/well and incubated for 60-90 minutes before the samples were read for emission at 570 nm after excitation of the donor beads at 680 nm. All incubations were performed at room temperature. The final top compound concentration was 50 μM with 1:3 titrations for 10-point dose response curves. Final assay conditions were 0.5 nM KRAS G12C, 0.75 nM RBD and 5 ug/ml each of AlphaScreen donor and acceptor beads. IC50s were determined using nonlinear regression fit of [inhibitor] vs. response (4 parameters).
# A counter assay was also set up to rule out inhibitors of the AlphaScreen technology itself. Compound plates were incubated for 2 hours as above with buffer only. The AlphaScreen beads were added as above except biotin-AviTag-GST was substituted for the RBD. Samples were read and analyzed as above.
# T1 sequence (P01116 1-169 isoform P01116-2 G12C/C51S/C80L/C118S): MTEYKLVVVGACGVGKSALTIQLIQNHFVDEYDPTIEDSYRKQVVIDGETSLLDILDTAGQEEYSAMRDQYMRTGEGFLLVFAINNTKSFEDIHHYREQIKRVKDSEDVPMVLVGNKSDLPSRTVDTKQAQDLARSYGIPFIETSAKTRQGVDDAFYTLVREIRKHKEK
row,SMILES,IC50 [nM]
1,CC(/C=C/C(=O)N1CC[C@@H](N(C)c2nc(OC[C@@]34CCCN3C[C@H](F)C4)nc3c(F)c(-c4cccc(Cl)c4C4CC4)ncc23)C1)N(C)C (stereo partly shown) [Compound 35],100 to 500
2,C[C@@H](/C=C/C(=O)N1CCN(c2nc(OC[C@@]34CCCN3C[C@H](F)C4)nc3c(F)c(-c4cccc5cccc(Cl)c45)ncc23)C[C@@H]1CC#N)N1CC2CC(C1)O2 [Compound 37],100 to 500
3,C[C@H](/C=C/C(=O)N1CCN(c2nc(OC[C@@]34CCCN3C[C@H](F)C4)nc3c(F)c(-c4cccc5cccc(Cl)c45)ncc23)C[C@@H]1CC#N)N1CC[C@H](F)C1 [Compound 38],≥ 500
4,CO[C@@H]1CCN([C@@H](C)/C=C/C(=O)N2CCN(c3nc(OC[C@@]45CCCN4C[C@H](F)C5)nc4c(F)c(-c5cccc6ccc(F)c(Cl)c56)ncc34)C[C@@H]2CC#N)C1 [Compound 39],100 to 500
5,CO[C@@H]1CCN([C@H](C)/C=C/C(=O)N2CCN(c3nc(OC[C@@]45CCCN4C[C@H](F)C5)nc4c(F)c(-c5cccc6ccc(F)c(Cl)c56)ncc34)C[C@@H]2CC#N)C1 [Compound 40],100 to 500
6,C[C@H](/C=C/C(=O)N1CCN(c2nc(OC[C@@]34CCCN3C[C@H](F)C4)nc3c(F)c(-c4cccc5cccc(Cl)c45)ncc23)C[C@@H]1CC#N)N1CC2CCC(C1)O2 [Compound 42],100 to 500
7,C[C@@H](/C=C/C(=O)N1CCN(c2nc(OC[C@@]34CCCN3C[C@H](F)C4)nc3c(F)c(-c4cccc5cccc(Cl)c45)ncc23)C[C@@H]1CC#N)N1CC2CCC(C1)O2 [Compound 43],100 to 500
8,"C[C@@H](/C=C/C(=O)N1CCN(c2nc(OC[C@@]34CCCN3C[C@H](F)C4)nc3c(F)c(-c4cccc(Cl)c4C4CC4)ncc23)C[C@@H]1CC#N)N(C)C [Compound 45, 2-((S)-4-(7-(3-chloro-2-cyclopropylphenyl)-8-fluoro-2-(((2R,7aS)-2-fluorotetrahydro-1H-pyrrolizin-7a(5H)-yl)methoxy)pyrido[4,3-d]pyrimidin-4-yl)-1-((S,E)-4-(dimethylamino)pent-2-enoyl)piperazin-2-yl)acetonitrile]",100 to 500
9,"C[C@@H](/C=C/C(=O)N1CCN(c2nc(OC[C@@]34CCCN3C[C@H](F)C4)nc3c(F)c(-c4cccc(Cl)c4C(F)(F)F)ncc23)C[C@@H]1CC#N)N(C)C [Compound 47, 2-((S)-4-(7-(3-chloro-2-(trifluoromethyl)phenyl)-8-fluoro-2-(((2R,7aS)-2-fluorotetrahydro-1H-pyrrolizin-7a(5H)-yl)methoxy)pyrido[4,3-d]pyrimidin-4-yl)-1-((S,E)-4-(dimethylamino)pent-2-enoyl)piperazin-2-yl)acetonitrile]",≥ 500

# Now from value to compound:
row,IC50 [nM],SMILES
1,< 10,"CC(/C=C/C(=O)N1CCN(c2nc(OC[C@@]34CCCN3C[C@H](F)C4)nc3c(F)c(-c4cccc5cccc(Cl)c45)ncc23)C[C@@H]1CC#N)N1CC[C@@H](F)C1 (stereo partly drawn) [Compound 29, 2-((2S)-4-(7-(8-chloronaphthalen-1-yl)-8-fluoro-2-(((2R,7aS)-2-fluorotetrahydro-1H-pyrrolizin-7a(5H)-yl)methoxy)pyrido[4,3-d]pyrimidin-4-yl)-1-((E)-4-((R)-3-fluoropyrrolidin-1-yl)pent-2-enoyl)piperazin-2-yl)acetonitrile]"
2,10 to 100,"C[C@H](/C=C/C(=O)N1CCN(c2nc(OC[C@@]34CCCN3C[C@H](F)C4)nc3c(F)c(-c4cccc5cccc(Cl)c45)ncc23)C[C@@H]1CC#N)N1[C@@H]2CC[C@H]1COC2 [Compound 30, 2-((S)-1-((R,E)-4-((1R,5S)-3-oxa-8-azabicyclo[3.2.1]octan-8-yl)pent-2-enoyl)-4-(7-(8-chloronaphthalen-1-yl)-8-fluoro-2-(((2R,7aS)-2-fluorotetrahydro-1H-pyrrolizin-7a(5H)-yl)methoxy)pyrido[4,3-d]pyrimidin-4-yl)piperazin-2-yl)acetonitrile]"
3,10 to 100,"C[C@@H](/C=C/C(=O)N1CCN(c2nc(OC[C@@]34CCCN3C[C@H](F)C4)nc3c(F)c(-c4cccc5cccc(Cl)c45)ncc23)C[C@@H]1CC#N)N1[C@@H]2CC[C@H]1COC2 [Compound 31, 2-((S)-1-((S,E)-4-((1R,5S)-3-oxa-8-azabicyclo[3.2.1]octan-8-yl)pent-2-enoyl)-4-(7-(8-chloronaphthalen-1-yl)-8-fluoro-2-(((2R,7aS)-2-fluorotetrahydro-1H-pyrrolizin-7a(5H)-yl)methoxy)pyrido[4,3-d]pyrimidin-4-yl)piperazin-2-yl)acetonitrile]"
4,< 10,"C#Cc1c(F)ccc2cccc(-c3ncc4c(N(C)[C@@H]5CCN(C(=O)/C=C/C(C)N(C)C)C5)nc(OC[C@@]56CCCN5C[C@H](F)C6)nc4c3F)c12 (stereo partly drawn) [Compound 32, (E)-4-(dimethylamino)-1-((R)-3-((7-(8-ethynyl-7-fluoronaphthalen-1-yl)-8-fluoro-2-(((2R,7aS)-2-fluorotetrahydro-1H-pyrrolizin-7a(5H)-yl)methoxy)pyrido[4,3-d]pyrimidin-4-yl)(methyl)amino)pyrrolidin-1-yl)pent-2-en-1-one]"
5,10 to 100,CC(/C=C/C(=O)N1CCN(c2nc(OC[C@@]34CCCN3C[C@H](F)C4)nc3c(F)c(-c4cccc5cccc(Cl)c45)ncc23)C[C@@H]1CC#N)N1CC2CCC(C1)O2 (stereo partly shown) [Compound 33]
6,10 to 100,CC(/C=C/C(=O)N1CCN(c2nc(OC[C@@]34CCCN3C[C@H](F)C4)nc3c(F)c(-c4cccc5cccc(Cl)c45)ncc23)C[C@@H]1CC#N)N1CC2CC(C1)O2 (stereo partly shown) [Compound 34]
7,10 to 100,C[C@H](/C=C/C(=O)N1CCN(c2nc(OC[C@@]34CCCN3C[C@H](F)C4)nc3c(F)c(-c4cccc5cccc(Cl)c45)ncc23)C[C@@H]1CC#N)N1CC2CC(C1)O2 [Compound 36]
8,10 to 100,C[C@@H](/C=C/C(=O)N1CCN(c2nc(OC[C@@]34CCCN3C[C@H](F)C4)nc3c(F)c(-c4cccc5cccc(Cl)c45)ncc23)C[C@@H]1CC#N)N1C[C@@H]2C[C@H]1CO2 [Compound 41]
9,10 to 100,"C[C@H](/C=C/C(=O)N1CCN(c2nc(OC[C@@]34CCCN3C[C@H](F)C4)nc3c(F)c(-c4cccc(Cl)c4C4CC4)ncc23)C[C@@H]1CC#N)N(C)C [Compound 44, 2-((S)-4-(7-(3-chloro-2-cyclopropylphenyl)-8-fluoro-2-(((2R,7aS)-2-fluorotetrahydro-1H-pyrrolizin-7a(5H)-yl)methoxy)pyrido[4,3-d]pyrimidin-4-yl)-1-((R,E)-4-(dimethylamino)pent-2-enoyl)piperazin-2-yl)acetonitrile]"
10,10 to 100,"C[C@H](/C=C/C(=O)N1CCN(c2nc(OC[C@@]34CCCN3C[C@H](F)C4)nc3c(F)c(-c4cccc(Cl)c4C(F)(F)F)ncc23)C[C@@H]1CC#N)N(C)C [Compound 46, 2-((S)-4-(7-(3-chloro-2-(trifluoromethyl)phenyl)-8-fluoro-2-(((2R,7aS)-2-fluorotetrahydro-1H-pyrrolizin-7a(5H)-yl)methoxy)pyrido[4,3-d]pyrimidin-4-yl)-1-((R,E)-4-(dimethylamino)pent-2-enoyl)piperazin-2-yl)acetonitrile]"
